Experimental data taken from article PMC4706618, “Comparison of bactericidal and cytotoxic activities of trichogin analogs” (Data in Brief, 2015).
≈ marks a conversion by molar mass, not a printed value. Where two headings read alike, the source gives them in different places. Non-standard residues stand in square brackets, D forms with d. Residues, ends and D or L forms follow the SMILES beside them. *: point of attachment. Leu(ol) = CC(C)C[C@H](N)CO; Octanoyl = CCCCCCCC(=O)*; Aib = CC(C)(N)C(=O)O

What was measured:
[1] = test system: S. aureus, ATCC BAA-44 (methicillin-resistant strain); format: cell-based, Staphylococcus aureus; details: after 24 h at 37 °C, broth microdilution in LB, 5×10^5 CFU/ml; ±SE, N≥4; peptide dose range 0–64 µM
Procedure: (§1) E. coli ATCC 25922, the methicillin-resistant strain of S. aureus, ATCC BAA-44, P. aeruginosa ATCC 25668 and S. epidermidis ATCC 700565 was a kind gift of Prof. Elena Reddi (Dept. of Biology, University of Padova, Italy). Cultures were maintained in Luria Bertani (LB) agar. MICs (Minimal inhibitory concentrations) of the peptides were determined using the broth microdilution method. Two-fold serial dilutions of each peptide, from 1 to 64 μM, were prepared in LB and 50 μl per well were arranged in sterile 96-well plates (Falcon). Then, an aliquot of bacterial cell suspension was added to each well, at a final concentration of 5×10^5 CFU/ml.

[2] = test system: S. epidermidis ATCC 700565; format: cell-based, Staphylococcus epidermidis; details: after 24 h at 37 °C, broth microdilution in LB, 5×10^5 CFU/ml; ±SE, N≥4; peptide dose range 0–64 µM
Procedure: as §1

[3] = test system: P. aeruginosa ATCC 25668; format: cell-based, Pseudomonas aeruginosa; details: after 24 h at 37 °C, broth microdilution in LB, 5×10^5 CFU/ml; ±SE, N≥4; peptide dose range 0–64 µM
Procedure: as §1

[4] = test system: E. coli ATCC 25922; format: cell-based, Escherichia coli; details: after 24 h at 37 °C, broth microdilution in LB, 5×10^5 CFU/ml; ±SE, N≥4; peptide dose range 0–64 µM
Procedure: as §1

[5] = test system: Gram^− and Gram^+ bacteria; test: Antibacterial activity, all strains taken together; format: cell-based; details: additional U at position 6 or U1 replaced with L; in words
Procedure: as §1

[6] = test system: human cells (lymphocytes, PMNs, monocytes, HL60, HeLa, A431, A549, CCD34Lu); test: Cytotoxicity on human cells, MTS reduction and LDH release; format: cell-based; details: 24 h, MTS/LDH EC50, all tested cells; in words
Procedure: To monitor the possible differential cytocidal effect of trichogin and its analogs on human cells (healthy and cancer cells, non-leukocytes and leukocytes), we incubated the peptides with (i) primary human leukocytes (lymphocytes, PMNs and monocytes), freshly isolated from blood of healthy donors (ii) the monocytes-like HL60 cell line from human myeloid leukemia, and (iii) three tumor-derived non-leukocyte cells lines: HeLa ([…]), A431 (human epidermoid carcinoma) and A549 (human lung carcinoma) and the in vitro stabilized line CCD34Lu (from human normal lung).
HeLa, A431 and CCD34-Lu cells were maintained in DMEM medium (Gibco), A549 in F12 medium (Gibco) and HL60 in RPMI medium (Gibco), supplemented with 10% FCS (Euroclone) and antibiotics (penicillin and streptomycin, 100 U/ml, Invitrogen) at 37 °C in a humidified atmosphere containing 5% (v/v) CO2; cells were split every 2–3 days. Human monocytes, polymorphonuclear leukocytes (PMNs) and lymphocytes were purified from buffy coats of healthy donors, kindly provided by the Centro Immunotrasfusionale, Hospital of Padova. Briefly, for monocyte purification, peripheral blood mononuclear cells (PBMC) were isolated from buffy coats of healthy donors by density gradient centrifugation on Ficoll-Paque Plus (GE Health care), which density is optimized for the isolation of mononuclear cells. Separate monocyte and T-cell fractions were obtained from PBMCs by Percoll density gradient centrifugation (GE Health care); residual lymphocytes were removed by incubation in 2% fetal calf serum (FCS) RPMI at 37 °C and subsequently washed to eliminate non adherent cells. Unless otherwise specified, cells were kept at 37 °C in a humidified atmosphere containing 5% (v/v) CO2 in RPMI-1640 supplemented with 10% FCS. For PMNs purification, the pellet of cells obtained after the centrifugation on Ficoll gradient was subjected to dextran erythrocytes precipitation; residual erythrocytes were removed by hypotonic lysis in 155 mM NH4Cl, 10 mM KHCO3, and […] Na2EDTA at pH 7.4 and cells were cultured in RPMI medium, supplemented with 10% FCS. For lymphocytes preparation, buffy coats were incubated with 50 μl/ml of Rosette Sep® Human T Cell Enrichment Cocktail (StemCell Technologies). Blood was then centrifuged over a Ficoll gradient and cells were cultured in RPMI medium, supplemented with 10% FCS.
(§2) Twenty-four hours before the experiment, A431, HeLa, A549 and CC34-Lu cells were detached by means of trypsin treatment (Gibco), counted and seeded onto a 96 wells/plate (8×10^3 cells/well, Falcon). After purification, monocytes were seeded onto a 96 wells/plate (2×10^6/well) and left to adhere to the plastic; then cells were immediately treated with stimuli. PMNs and lymphocytes (2×10^6 cells/well) and HL60 cells (40×10^3) were seeded onto cell plates and subsequently treated. Different peptides were diluted in culture medium (from 20 μM to 1 μM) and added to the cells. As a […] control cells were treated with medium without stimuli. Twenty-four hours after treatment, the cell supernatant was collected for subsequent assay (LDH assay) and cells were tested using a CellTiter 96® AQueous One Solution Reagent (Promega). Plates were read with an ELISA reader (Amersham Biosciences) at 492 nm. Data were expressed as % of absorbance value compared to untreated cells (assumed as 100% viable). Alternatively, the EC50 (the concentration of drug where 50% of cells died) was calculated for each peptide and each kind of tested cell.
(§3) 50 μl of the cell supernatant was tested with a CytoTox 96® Non-Radioactive Cytotoxicity Assay kit (Promega). EC50 (the concentration of drug that induced the lysis of 50% of the total cell number) was calculated for each peptide and each kind of tested cell.

[7] = test system: HeLa cells; test: Cytotoxicity on HeLa cells, MTS/LDH; format: cell-based, human; details: 24 h, in words
Procedure: as §2, §3

[8] = test system: HeLa cells; test: Propidium iodide / Annexin V assay (FACS); format: cell-based, human; details: 18 h treatment, up to 20 μM, in words
Procedure: HeLa cells were seeded on 24-wells plastic trays (Falcon) the day before the experiment, while HL60 were used directly. Cells were treated for 18 h with different trichogin analogs (up to 20 μM); then they were washed with PBS, detached with trypsin (in the case of HeLa cells), centrifuged at 200g for 5 min, suspended in 50 μl of incubation buffer and incubated for 15 min at 37 °C with 2 μl of Annexin-V-Fluos (Roche). Cells were finally diluted in 250 μl of the incubation buffer and 15 μl of Propidium Iodide (Sigma) were added to each sample just before the acquisition with FACSCanto® (Beckton Dickinson). Percentage of healthy (Annexin V^−/PI^−), apoptotic (Annexin V^+/PI^−), oncotic (Annexin V^−/PI^+) and late apoptotic/abortive oncotic (Annexin V^+/PI^+) cells of the total (10^6 cells) was calculated using FACSDiva Software.

[9] = test system: Erythrocytes; test: Hemolytic activity (hemoglobin release); format: cell-based; details: erythrocytes treated 24 h, hemoglobin release read spectrophotometrically; in words
Procedure: Fig. 7 Hemolytic activity of trichogin and its analogs. Erythrocytes were treated for 24 h with different concentration of peptides, centrifuged and hemoglobin release was measured spectrophotometrically. Hemolysis is expressed as percentage relative to positive control (erythrocytes treated with distilled water). § Indicates data from for comparison.

[10] = test system: S. aureus, ATCC BAA-44 (methicillin-resistant strain); details: after 24 h; ±SE; § data for comparison; ref [6]; cited from earlier work
Procedure: Table 2 MICs (μM±SE; N≥4; peptides dose range: 0–64 µM) after 24 h against two Gram^+ and two Gram^− bacterial strains (§ indicates data from for comparison). | column: S. aureus

[11] = test system: S. epidermidis ATCC 700565; details: after 24 h; ±SE; § data for comparison; ref [6]; cited from earlier work
Procedure: Table 2 MICs (μM±SE; N≥4; peptides dose range: 0–64 µM) after 24 h against two Gram^+ and two Gram^− bacterial strains (§ indicates data from for comparison). | column: S. epidermis

[12] = test system: P. aeruginosa ATCC 25668; details: after 24 h; ±SE; § data for comparison; ref [6]; cited from earlier work
Procedure: Table 2 MICs (μM±SE; N≥4; peptides dose range: 0–64 µM) after 24 h against two Gram^+ and two Gram^− bacterial strains (§ indicates data from for comparison). | column: P. aeruginosa

[13] = test system: E. coli ATCC 25922; details: after 24 h; ±SE; § data for comparison; ref [6]; cited from earlier work
Procedure: Table 2 MICs (μM±SE; N≥4; peptides dose range: 0–64 µM) after 24 h against two Gram^+ and two Gram^− bacterial strains (§ indicates data from for comparison). | column: E. coli

[14] = test system: Gram^− and Gram^+ bacteria; details: both Gram^− and Gram^+ bacteria; ref Tavano et al., 2015 [6]; cited from earlier work
From the text: (§4) Peptaibiotics are a group of membrane active peptides of fungal origin. They typically contain α-aminoisobutyric acid (Aib; 1-letter code, U) and other non-coded residues (Toniolo and Brückner, 2009; Neumann et al., 2015; Benedett et al., 1982), [2], [3] stabilizing their helical structure. Peptaibols are peptaibiotics carrying a 1, 2-aminoalcohol at the C-terminus. When a fatty acid chain (of 8–10 carbon atoms) is present at their N-terminus, they are called lipopeptaibols (Toniolo et al., 2001; Degenkolb et al., 2003), [5]. We found (Tavano et al., 2015) that the lipo ...

[15] = test system: human cells (lymphocytes, PMNs, monocytes, HL60, HeLa, A431, A549, CCD34Lu); details: tumor and healthy human cells; ref Tavano et al., 2015 [6]; read-out: EC50 for killing tumor and healthy human cells; cited from earlier work
From the text: as §4

Compound | MIC S. aureus [1] | MIC S. epidermis [2] | MIC P. aeruginosa [3] | MIC E. coli [4] | antibacterial activity compared with the K-containing analogs [5] | cytotoxicity compared with trichogin or the corresponding analog [6] | toxicity to HeLa cells compared with trichogin [7] | type and extent of HeLa cell death, PI/Annexin V labeling [8] | hemolytic effect [9] | MIC S. aureus [10] | MIC S. epidermis [11] | MIC P. aeruginosa [12] | MIC E. coli [13] | antibacterial effects (none up to the stated concentration) [14] | EC50 [15]
CCCCCCCC(=O)NC(C)(C)C(=O)NCC(=O)N[C@@H](CC(C)C)C(=O)NC(C)(C)C(=O)N[C@@H](CCCCN)C(=O)NC(C)(C)C(=O)N[C@@H](CC(C)C)C(=O)NC(C)(C)C(=O)NCC(=O)N[C@H](C(=O)N[C@H](CO)CC(C)C)[C@@H](C)CC [K5U6] (Octanoyl-[Aib]GL[Aib]K[Aib]L[Aib]GI[Leu(ol)]) | 3.8 ± 2.4 µM (≈ 4.43 µg/mL) | 2.4 ± 0.9 µM (≈ 2.8 µg/mL) | >64 µM | >64 µM | failed to increase the antibacterial activity | increased cytotoxicity | significantly more effective in killing HeLa cells | predominantly a late apoptotic phenotype but also significant necrosis | – | – | – | – | – | – | –
CCCCCCCC(=O)N[C@@H](CC(C)C)C(=O)NCC(=O)N[C@@H](CC(C)C)C(=O)NC(C)(C)C(=O)NCC(=O)NCC(=O)N[C@@H](CC(C)C)C(=O)NC(C)(C)C(=O)NCC(=O)N[C@H](C(=O)N[C@H](CO)CC(C)C)[C@@H](C)CC [L1] (Octanoyl-LGL[Aib]GGL[Aib]GI[Leu(ol)]) | 32 ± 0 µM (≈ 35 µg/mL) | >64 µM | >64 µM | >64 µM | – | weakly affected | – | as effective as trichogin in killing HeLa cells | – | – | – | – | – | – | –
Oc-UGLUGGLUGILol [GA IV, trichogin GA IV, lipopeptaibol trichogin, Oc-UGLUGGLUGILol] | – | – | – | – | – | – | – | – | weakly hemolytic | >64 µM | >64 µM | >64 µM | >64 µM | > 64 µM | 4 to 5 µM
